Reference: ChEMBL document CHEMBL1201862, “PubChem BioAssay data set” (2004)
Active and inactive are the calls of the source.

Legend:
[1] = target: Glucose-6-phosphate 1-dehydrogenase (Homo sapiens, UniProt P11413); experiment: inhibition of Homo sapiens G6PD, dose series – biochemical, fluorescence, selectivity assay for P. falciparum G6PD inhibitor project, dose response (AID 504792); type: functional
[2] = target: T1, Corticotropin-releasing factor receptor 2/Corticotropin-releasing factor-binding protein (Homo sapiens, UniProt P24387+Q13324); experiment: Dose Response confirmation of uHTS hits for small molecule antagonists of the CRF-binding protein and CRF-R2 receptor complex.; type: functional; conditions: read-out: IC50_Mean
T1 sequence (Q13324 whole entry): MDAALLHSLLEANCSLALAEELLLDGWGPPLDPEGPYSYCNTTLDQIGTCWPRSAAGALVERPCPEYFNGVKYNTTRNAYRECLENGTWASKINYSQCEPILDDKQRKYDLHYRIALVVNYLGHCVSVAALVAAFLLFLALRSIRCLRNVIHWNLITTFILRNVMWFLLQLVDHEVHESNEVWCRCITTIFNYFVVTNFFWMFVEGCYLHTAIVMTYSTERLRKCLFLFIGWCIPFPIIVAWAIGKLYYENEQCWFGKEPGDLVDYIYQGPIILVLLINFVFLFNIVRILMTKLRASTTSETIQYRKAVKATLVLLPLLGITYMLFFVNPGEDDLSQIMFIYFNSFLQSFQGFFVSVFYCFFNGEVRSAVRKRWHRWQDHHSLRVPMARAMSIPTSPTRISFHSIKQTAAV
T1 sequence (P24387 whole entry): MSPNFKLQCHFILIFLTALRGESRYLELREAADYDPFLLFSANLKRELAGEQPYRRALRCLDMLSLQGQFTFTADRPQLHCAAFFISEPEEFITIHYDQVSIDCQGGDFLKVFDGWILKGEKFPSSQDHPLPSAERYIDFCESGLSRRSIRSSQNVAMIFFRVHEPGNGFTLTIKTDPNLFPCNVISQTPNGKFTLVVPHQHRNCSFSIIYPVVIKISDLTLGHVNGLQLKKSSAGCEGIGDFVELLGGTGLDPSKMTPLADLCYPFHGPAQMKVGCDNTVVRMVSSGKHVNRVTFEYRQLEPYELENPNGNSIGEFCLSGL

[3] = target: T1, Corticotropin-releasing factor receptor 2/Corticotropin-releasing factor-binding protein; experiment: activators of CRF receptor 2 with binding protein – uHTS hits, confirmation (AID 602473); type: functional; conditions: read-out: EC50_Mean
[4] = blockers of CRF-binding protein–CRF-R2 complex – cell-based, uHTS hits, 384-well, dose response (AID 651639); type: functional, Homo sapiens; conditions: read-out: IC50_Mean
[5] = inhibition of ARNT PAS-B/TACC3 complex formation – biochemical, AlphaScreen, cherry-picked samples, confirmation (AID 651703); type: functional, Homo sapiens;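 also: His-tagged ARNT PAS-B domain paired with GST-TACC3 E629A dimer coactivator fragment; potency of inhibitors that break up the complex and lower AlphaScreen signal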
cells = type: functional, cell-based
[6] = target: T2, Nuclear receptor subfamily 0 group B member 1 (Homo sapiens, UniProt P51843); type: functional, cell-based;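 also: HEK293T cells transfected with SF-1 and DAX-1 plus StAR promoter luciferase reporter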
T2 sequence (P51843 whole entry): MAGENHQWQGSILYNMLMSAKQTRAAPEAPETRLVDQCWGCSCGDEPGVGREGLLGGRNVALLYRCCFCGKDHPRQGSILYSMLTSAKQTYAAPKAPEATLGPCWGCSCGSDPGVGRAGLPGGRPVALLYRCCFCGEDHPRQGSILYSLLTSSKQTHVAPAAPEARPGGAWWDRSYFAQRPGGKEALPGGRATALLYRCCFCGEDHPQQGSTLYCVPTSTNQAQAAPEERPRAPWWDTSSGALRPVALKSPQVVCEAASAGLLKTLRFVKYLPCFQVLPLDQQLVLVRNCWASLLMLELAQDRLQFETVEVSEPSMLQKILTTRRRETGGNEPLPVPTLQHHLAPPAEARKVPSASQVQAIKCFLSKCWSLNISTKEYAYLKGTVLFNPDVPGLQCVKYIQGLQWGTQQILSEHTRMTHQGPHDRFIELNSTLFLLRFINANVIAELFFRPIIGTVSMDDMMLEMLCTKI

[7] = A549 cell cytotoxicity, dose response, cytotoxicity control, plate reader, cherry-pick, antagonist series (AID 743412); type: functional, cell-based
[8] = blockers of bursicon-stimulated LGR2 cAMP reporter – cell-based, HEK293, CRE-luciferase reporter, cherry pick, set 2, dose response (AID 743343); type: functional;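 also: transfected cells were stimulated with diluted bursicon conditioned medium after compound addition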
Vero = experiment: viability of Vero cells under compound – cytotoxicity control for flavivirus capping enzyme inhibitors (AID 588742); type: functional; conditions: Chlorocebus sabaeus
[9] = target: T3, Apoptotic protease-activating factor 1 (Homo sapiens, UniProt O14727); type: functional
T3 sequence (O14727 whole entry): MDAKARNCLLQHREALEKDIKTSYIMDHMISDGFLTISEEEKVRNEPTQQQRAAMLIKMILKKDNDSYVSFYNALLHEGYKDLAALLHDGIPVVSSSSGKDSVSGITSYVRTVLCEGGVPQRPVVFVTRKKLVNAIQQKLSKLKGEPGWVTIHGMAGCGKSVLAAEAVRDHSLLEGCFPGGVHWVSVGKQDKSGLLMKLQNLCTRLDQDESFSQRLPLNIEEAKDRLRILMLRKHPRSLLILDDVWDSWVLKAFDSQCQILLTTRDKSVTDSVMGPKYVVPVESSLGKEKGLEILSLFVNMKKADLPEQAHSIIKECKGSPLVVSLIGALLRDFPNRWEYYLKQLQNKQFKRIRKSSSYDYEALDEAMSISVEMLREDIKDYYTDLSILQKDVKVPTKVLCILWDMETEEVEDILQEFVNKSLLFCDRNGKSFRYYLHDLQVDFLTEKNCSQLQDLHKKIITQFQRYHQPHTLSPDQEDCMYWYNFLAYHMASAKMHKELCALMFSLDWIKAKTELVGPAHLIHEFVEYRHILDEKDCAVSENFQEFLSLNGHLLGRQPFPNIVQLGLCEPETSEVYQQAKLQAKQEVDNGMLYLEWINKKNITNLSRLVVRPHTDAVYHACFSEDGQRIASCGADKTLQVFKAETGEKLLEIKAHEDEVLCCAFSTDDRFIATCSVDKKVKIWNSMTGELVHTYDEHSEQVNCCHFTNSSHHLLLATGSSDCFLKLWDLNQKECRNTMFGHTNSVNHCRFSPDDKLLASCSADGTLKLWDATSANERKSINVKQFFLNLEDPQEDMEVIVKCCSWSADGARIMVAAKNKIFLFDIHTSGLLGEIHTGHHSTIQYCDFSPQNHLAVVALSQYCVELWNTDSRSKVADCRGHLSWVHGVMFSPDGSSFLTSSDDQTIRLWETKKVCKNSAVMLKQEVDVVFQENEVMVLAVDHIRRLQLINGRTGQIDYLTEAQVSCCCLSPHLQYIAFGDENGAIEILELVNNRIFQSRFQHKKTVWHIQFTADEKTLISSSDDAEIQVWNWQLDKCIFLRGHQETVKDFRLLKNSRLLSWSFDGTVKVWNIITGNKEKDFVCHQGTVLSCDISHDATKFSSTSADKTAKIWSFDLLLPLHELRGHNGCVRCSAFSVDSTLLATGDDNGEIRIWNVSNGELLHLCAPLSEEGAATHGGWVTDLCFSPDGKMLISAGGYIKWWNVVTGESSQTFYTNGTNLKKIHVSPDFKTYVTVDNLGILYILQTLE

Genome polyprotein = Genome polyprotein (dengue virus type 2, UniProt P29990); experiment: flavivirus cap methylation enzyme inhibition – biochemical, confirmation dose response, primary screen (AID 588689); type: functional
Sequence of Genome polyprotein (P29990 2492-3391 limits assumed): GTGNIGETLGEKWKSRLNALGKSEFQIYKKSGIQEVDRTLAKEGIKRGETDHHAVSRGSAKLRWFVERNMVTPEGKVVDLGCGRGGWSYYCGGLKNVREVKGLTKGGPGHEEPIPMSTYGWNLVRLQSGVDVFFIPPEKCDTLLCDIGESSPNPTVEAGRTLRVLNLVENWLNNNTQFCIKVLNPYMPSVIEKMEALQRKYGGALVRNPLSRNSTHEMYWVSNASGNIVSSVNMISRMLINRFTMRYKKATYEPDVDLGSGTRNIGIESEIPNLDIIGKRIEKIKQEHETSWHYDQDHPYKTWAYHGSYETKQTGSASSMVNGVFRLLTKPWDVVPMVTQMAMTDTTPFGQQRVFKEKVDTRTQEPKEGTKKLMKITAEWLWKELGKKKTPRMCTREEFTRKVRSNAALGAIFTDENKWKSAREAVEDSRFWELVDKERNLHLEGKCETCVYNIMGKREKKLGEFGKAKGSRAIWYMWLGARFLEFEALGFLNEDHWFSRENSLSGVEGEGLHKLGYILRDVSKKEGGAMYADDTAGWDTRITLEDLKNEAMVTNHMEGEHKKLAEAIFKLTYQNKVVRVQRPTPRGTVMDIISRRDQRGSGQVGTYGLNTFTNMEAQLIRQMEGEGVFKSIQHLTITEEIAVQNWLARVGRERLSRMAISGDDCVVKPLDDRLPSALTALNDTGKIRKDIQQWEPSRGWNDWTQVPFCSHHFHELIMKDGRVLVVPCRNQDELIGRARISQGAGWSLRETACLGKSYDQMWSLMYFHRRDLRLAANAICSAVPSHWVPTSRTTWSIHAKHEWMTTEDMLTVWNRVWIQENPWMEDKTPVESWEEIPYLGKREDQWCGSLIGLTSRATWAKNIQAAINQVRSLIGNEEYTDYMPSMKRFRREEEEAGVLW

[10] = target: Long-chain-fatty-acid--AMP ligase FadD28 (Mycobacterium tuberculosis, UniProt P9WQ59); experiment: Fluorescence polarization aasay to screen for inhibitors that compete for the binding of FadD28 to a bisubstrate Measured in Biochemical System Using Plate Reader - 2147-01_Inhibitor_Dose_CherryPick_Activity.; type: functional, Mycobacterium tuberculosis H37Rv
Sequence of Long-chain-fatty-acid--AMP ligase FadD28 (P9WQ59 whole entry): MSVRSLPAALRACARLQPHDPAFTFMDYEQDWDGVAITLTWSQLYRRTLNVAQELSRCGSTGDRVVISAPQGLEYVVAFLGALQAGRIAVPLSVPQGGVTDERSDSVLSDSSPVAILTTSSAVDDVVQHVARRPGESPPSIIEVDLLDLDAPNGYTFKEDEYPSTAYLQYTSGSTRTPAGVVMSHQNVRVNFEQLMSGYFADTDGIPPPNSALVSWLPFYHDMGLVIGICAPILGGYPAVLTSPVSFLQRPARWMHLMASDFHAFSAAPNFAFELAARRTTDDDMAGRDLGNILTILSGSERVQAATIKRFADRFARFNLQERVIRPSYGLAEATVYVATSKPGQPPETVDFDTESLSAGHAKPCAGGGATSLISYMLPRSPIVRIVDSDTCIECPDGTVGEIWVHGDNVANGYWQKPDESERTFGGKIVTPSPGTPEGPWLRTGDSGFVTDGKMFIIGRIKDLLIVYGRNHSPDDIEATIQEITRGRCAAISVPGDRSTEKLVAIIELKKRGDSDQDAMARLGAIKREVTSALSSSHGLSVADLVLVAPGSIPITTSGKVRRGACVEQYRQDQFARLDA

[11] = general mammalian cell viability loss – inhibitor set, cherry-pick, set 2, cytotoxicity control for miR-122 modulator project, dose response (AID 720697); type: functional, cell-based
[12] = target: T4, Endoribonuclease toxin MazF (Escherichia coli K-12, UniProt P0AE70); experiment: activation of MazEF endoribonuclease cleavage – biochemical, fluorescence, single-stranded RNA substrate, uHTS hits, dose response (AID 588481); type: functional
T4 sequence (P0AE70 whole entry): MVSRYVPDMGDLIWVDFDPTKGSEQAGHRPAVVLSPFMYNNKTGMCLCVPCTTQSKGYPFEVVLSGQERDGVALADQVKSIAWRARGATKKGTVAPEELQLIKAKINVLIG

[13] = target: T4, Endoribonuclease toxin MazF; experiment: substrate-only fluorescence increase artefacts – biochemical, single-stranded RNase substrate, counter-screen for MazEF activator project, dose response (AID 588502); type: functional
Cytochrome P450 3A4 = Cytochrome P450 3A4 (Homo sapiens, UniProt P08684);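 also: CYP3A4 tested as one member of a cytochrome P450 panel screen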
Sequence of Cytochrome P450 3A4 (P08684 whole entry): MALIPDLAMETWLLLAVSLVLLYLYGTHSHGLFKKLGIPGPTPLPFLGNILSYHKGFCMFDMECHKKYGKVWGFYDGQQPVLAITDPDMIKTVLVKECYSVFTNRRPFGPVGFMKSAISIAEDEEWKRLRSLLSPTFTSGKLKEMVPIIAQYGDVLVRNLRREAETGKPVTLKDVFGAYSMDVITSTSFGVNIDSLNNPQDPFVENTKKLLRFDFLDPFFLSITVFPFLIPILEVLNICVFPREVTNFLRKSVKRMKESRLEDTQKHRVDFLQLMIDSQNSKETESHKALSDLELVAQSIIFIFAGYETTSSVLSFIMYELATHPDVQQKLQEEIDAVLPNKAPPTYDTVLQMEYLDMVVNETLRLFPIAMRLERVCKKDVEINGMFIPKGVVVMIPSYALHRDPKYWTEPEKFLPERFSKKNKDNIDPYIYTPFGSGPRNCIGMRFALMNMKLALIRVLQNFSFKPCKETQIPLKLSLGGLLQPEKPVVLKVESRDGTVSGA

Cytochrome P450 2C9 = Cytochrome P450 2C9 (Homo sapiens, UniProt P11712)
Sequence of Cytochrome P450 2C9 (P11712 whole entry): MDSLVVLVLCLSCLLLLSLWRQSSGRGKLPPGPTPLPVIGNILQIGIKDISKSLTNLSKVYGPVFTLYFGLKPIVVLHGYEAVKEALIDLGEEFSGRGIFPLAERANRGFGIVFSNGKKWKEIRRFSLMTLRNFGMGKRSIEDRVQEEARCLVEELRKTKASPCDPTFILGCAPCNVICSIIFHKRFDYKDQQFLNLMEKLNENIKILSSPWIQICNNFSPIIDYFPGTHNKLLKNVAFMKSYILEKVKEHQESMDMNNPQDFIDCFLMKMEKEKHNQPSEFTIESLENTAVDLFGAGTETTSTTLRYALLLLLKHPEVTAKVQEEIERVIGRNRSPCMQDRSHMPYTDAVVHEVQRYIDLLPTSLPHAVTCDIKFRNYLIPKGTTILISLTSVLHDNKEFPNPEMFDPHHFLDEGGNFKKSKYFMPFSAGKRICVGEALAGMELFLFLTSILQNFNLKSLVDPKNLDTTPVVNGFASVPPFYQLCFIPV

[14] = target: T5, Calpain-2 catalytic subunit (Sus scrofa, UniProt P43367); experiment: m-calpain protease blockers, concentration series – biochemical, fluorogenic peptide substrate, dose response (AID 1420); type: functional
T5 sequence (P43367 whole entry): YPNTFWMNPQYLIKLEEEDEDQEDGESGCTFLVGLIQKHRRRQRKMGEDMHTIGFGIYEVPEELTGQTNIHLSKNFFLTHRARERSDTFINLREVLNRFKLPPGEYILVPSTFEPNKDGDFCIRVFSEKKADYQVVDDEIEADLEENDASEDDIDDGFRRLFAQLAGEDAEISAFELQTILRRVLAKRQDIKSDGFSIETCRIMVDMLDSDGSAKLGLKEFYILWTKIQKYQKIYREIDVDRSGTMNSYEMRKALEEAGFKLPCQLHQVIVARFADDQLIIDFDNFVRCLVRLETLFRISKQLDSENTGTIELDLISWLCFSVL

[15] = target: T6, Oxysterols receptor LXR-beta (Homo sapiens, UniProt P55055); type: functional, cell-based;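 also: agonist activity at LXR measured by a cell-based luminescence readout across a dose range, run as a counterscreen for daf-12 agonists; HEK293 cells with Gal4-LXR fusion and GAL4-driven luciferase reporter; potency for activation of Gal4-LXR reporter so compounds are agonists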
T6 sequence (P55055 whole entry): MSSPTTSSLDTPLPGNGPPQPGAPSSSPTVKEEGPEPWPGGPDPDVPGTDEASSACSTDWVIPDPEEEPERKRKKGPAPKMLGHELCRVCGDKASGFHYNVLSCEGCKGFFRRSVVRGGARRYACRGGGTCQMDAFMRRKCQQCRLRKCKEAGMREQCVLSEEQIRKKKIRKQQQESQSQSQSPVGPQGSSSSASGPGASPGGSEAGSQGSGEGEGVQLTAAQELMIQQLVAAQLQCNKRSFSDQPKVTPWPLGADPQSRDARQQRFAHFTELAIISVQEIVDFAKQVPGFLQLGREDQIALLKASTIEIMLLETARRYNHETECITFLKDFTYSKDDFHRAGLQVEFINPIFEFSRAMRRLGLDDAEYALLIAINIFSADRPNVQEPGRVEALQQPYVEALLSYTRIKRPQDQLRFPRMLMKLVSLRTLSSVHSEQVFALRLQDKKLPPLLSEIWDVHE

[16] = activation of miR-122 Renilla sensor silencing – cell-based, Huh7 psiCHECK-miR122, Renilla luciferase, cherry-picked, dose response (AID 651956); type: functional;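 also: huh7 hepatoma cells stably carrying a psiCHECK-2 miR-122 sensor plasmid; renilla luciferase signal reporting endogenous miR-122 activity after 48 h compound exposure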
Beta-galactosidase = Beta-galactosidase (Escherichia coli, UniProt Q8VNN2); experiment: detection-enzyme interference by beta-gal modulators – biochemical, E. coli enzyme, set 3, artefact control for CCR6 antagonist project, dose response (AID 504712); type: functional
Sequence of Beta-galactosidase (Q8VNN2 whole entry): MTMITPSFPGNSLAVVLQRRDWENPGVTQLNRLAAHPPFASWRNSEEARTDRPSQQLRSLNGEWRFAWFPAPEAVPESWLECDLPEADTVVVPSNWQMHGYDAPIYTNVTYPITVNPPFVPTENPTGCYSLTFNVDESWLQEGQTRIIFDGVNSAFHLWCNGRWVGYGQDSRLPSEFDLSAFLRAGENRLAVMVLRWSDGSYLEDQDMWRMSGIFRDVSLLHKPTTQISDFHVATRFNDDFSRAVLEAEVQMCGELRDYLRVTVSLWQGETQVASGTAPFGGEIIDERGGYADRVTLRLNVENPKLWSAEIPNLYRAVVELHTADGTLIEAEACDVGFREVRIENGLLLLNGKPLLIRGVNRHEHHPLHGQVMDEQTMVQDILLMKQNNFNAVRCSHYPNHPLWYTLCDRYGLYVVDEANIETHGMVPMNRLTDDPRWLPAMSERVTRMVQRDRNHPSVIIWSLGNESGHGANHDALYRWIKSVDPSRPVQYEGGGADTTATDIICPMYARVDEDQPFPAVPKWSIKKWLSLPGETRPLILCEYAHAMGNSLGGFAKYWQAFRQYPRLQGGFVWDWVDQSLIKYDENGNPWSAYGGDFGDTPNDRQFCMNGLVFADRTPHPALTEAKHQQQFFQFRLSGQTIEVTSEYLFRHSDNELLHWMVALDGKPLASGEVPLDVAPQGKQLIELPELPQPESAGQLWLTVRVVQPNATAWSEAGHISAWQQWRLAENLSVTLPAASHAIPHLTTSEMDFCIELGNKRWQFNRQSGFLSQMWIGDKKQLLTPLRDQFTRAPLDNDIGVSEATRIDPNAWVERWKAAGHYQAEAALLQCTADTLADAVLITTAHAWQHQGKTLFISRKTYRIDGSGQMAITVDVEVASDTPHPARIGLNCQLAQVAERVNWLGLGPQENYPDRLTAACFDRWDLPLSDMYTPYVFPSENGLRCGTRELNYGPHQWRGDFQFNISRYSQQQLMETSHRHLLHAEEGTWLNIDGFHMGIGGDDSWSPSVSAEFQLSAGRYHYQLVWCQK

HEK293 = experiment: EBV LMP1 TES2 canonical NF-kB signalling blockers – cell-based, HEK293, luciferase, cherry-pick, dose response (AID 588343); type: functional; conditions: Homo sapiens
Paired box protein Pax-8 = Paired box protein Pax-8 (Homo sapiens, UniProt Q06710); experiment: PAX8 transcriptional activity inhibition in RMG-I – RMG-I cells, luciferase, cherry-pick, dose response (AID 687027); type: functional, cell-based;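 also: luciferase reporter driven by Pax8 target thyroperoxidase promoter measured by SteadyGlo luminescence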
Sequence of Paired box protein Pax-8 (Q06710 whole entry): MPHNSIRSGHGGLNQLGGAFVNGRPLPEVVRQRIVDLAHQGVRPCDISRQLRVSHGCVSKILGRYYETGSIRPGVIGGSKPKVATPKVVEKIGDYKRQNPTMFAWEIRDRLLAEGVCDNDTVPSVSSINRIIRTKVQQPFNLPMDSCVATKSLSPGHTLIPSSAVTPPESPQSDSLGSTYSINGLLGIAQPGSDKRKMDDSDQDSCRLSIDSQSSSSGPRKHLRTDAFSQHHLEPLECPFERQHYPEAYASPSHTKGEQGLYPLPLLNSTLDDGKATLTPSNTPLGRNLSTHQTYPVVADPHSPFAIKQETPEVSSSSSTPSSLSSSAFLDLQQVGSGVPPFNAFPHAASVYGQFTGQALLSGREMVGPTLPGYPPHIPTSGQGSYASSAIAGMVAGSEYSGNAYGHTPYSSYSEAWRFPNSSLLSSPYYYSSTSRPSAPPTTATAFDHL

[17] = general cell-killing toxicity readout – plate reader, dry powder samples, cytotoxicity control for PAX8 inhibitor project, dose response (AID 743021); type: functional, cell-based

Sequence of Glucose-6-phosphate 1-dehydrogenase (P11413 whole entry): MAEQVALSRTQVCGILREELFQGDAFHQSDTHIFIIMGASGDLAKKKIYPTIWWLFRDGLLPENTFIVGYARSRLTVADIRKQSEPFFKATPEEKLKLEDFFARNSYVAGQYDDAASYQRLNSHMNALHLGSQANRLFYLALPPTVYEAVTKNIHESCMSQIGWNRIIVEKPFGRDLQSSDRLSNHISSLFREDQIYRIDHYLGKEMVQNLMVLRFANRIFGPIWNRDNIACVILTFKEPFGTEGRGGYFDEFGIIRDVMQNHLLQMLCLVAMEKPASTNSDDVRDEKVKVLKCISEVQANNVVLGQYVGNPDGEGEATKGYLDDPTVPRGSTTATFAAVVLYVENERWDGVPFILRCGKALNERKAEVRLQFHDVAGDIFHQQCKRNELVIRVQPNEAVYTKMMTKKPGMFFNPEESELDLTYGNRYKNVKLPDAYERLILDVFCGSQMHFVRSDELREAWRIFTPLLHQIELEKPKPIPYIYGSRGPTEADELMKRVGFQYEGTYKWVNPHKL

## COc1ccc(Cl)cc1NC(=O)c1cccc([N+](=O)[O-])c1O
[1]
  IC50: 46.5 µM (inactive)
[2]
  IC50: 2.55 µM (active)
[3]
  EC50: > 53 µM (inactive)
[4]
  IC50: 8.13 µM (active)

## COc1ccc(-c2oc3cc(O)c(OC)c(O)c3c(=O)c2OC)cc1O [CENTAUREIDIN]
[5]
  AC50: 101 µM (active)
cells
  IC50: > 67.5 µM (inactive)
[6]
  IC50: 35 µM (inactive)

## NCC[C@H]1CC[C@H](NS(=O)(=O)Cc2ccccc2)[C@@H](CO)O1
[7]
  AC50: > 52 µM (inactive)
[8]
  AC50: 40.7 µM (active)

## COc1ccc(C2CCCN2C(=O)Nc2ccc(C)c(C)c2)cc1OC (configuration not stated)
[2]
  IC50: 42.4 µM (active)
[3]
  EC50: > 53 µM (inactive)
[4]
  IC50: > 20 µM (inactive)

## Cc1coc2c1C(=O)C(=O)c1c-2ccc2c1CCCC2(C)C [TANSHINONE IIA]
Vero
  CC50: 9.09 µM (active)
[9]
  IC50: 4.82 µM (active)
Genome polyprotein
  IC50: > 100 µM (active)
[10]
  AC50: 88.9 µM (active)

## CCn1nnnc1SCC(=O)Nc1nnc(C(C)C)s1
[11]
  AC50: 7.36 µM (active)

## CC1=Nc2ccccc2/C1=C\c1nc(-c2ccc(C(F)(F)F)cc2)oc1O
[12]
  EC50: > 99 µM (inactive)
[13]
  EC50: > 99 µM (inactive)
[3]
  EC50: 10.2 µM (active)
[10]
  AC50: > 100 µM (inactive)
Cytochrome P450 3A4
  AC50: 28.2 µM (inconclusive)
Cytochrome P450 2C9
  AC50: 12.6 µM (inconclusive)

## Oc1ccccc1-c1cc(-c2ccc3c(c2)OCCO3)[nH]n1
[14]
  IC50: > 50 µM (not active)
cells
  IC50: > 67.6 µM (inactive)
[6]
  IC50: 17.6 µM (inactive)
[15]
  EC50: > 67.6 µM (inactive)

## COc1ccc(S(=O)(=O)N(C)C[C@@H]2Oc3ncc(/C=C/c4ccccc4)cc3C(=O)N([C@@H](C)CO)C[C@@H]2C)cc1
[16]
  AC50: 2.03 µM (active)

## COc1ccc(N2C(=O)CC(Sc3nnc(-c4ccccc4)o3)C2=O)cc1 (configuration not stated)
Beta-galactosidase
  IC50: > 66.6 µM (inactive)
HEK293
  AC50: 19.6 µM (active)
Paired box protein Pax-8
  AC50: 10.4 µM (active)
[17]
  AC50: 44.9 µM (active)
